One compound from article PMC4279406, “Simultaneous targeting of PI3Kδ and a PI3Kδ-dependent MEK1/2-Erk1/2 pathway for therapy in pediatric B-cell acute lymphoblastic leukemia” (Oncotarget, 2014) can be followed below.

What all share (experiment): KinaseProfiler protein kinase activity
What all share (type): biochemical
What all share (settings): 10 μM X-370

One test concerns the target T1, IRAK1 (Homo sapiens, UniProt P51617).
T1 construct: purchased Millipore KinaseProfiler
How it is done: (§1) In vitro kinase profile assays were analyzed by the Kinase Profiler Service (Millipore, United Kingdom) following its guidelines. A GST-tagged human p110δ and regulatory full-length p85 were co-expressed in insect cell Sf9. Recombinant protein was extracted by affinity purification. The PI3K kinase activity was determined in the increasing concentration of ATP and X-370 with PI3-Kinase HTRF™ Assay kit (Millipore) as described previously. […]
(§2) Table S1: Inhibitory activity of X-370 against protein kinases
(§3) kinome at 10 μM. The relative kianse activity left in the presence of 10 μM were shown (Mi llipore
(§4) Kinase activity (% of control) Kinase activity (% of control) Kinase activity (% of control)
(§5) CDK1/cyclinB 97 Lck activated 89 Ret 125

A further test deals with T2, PAK2 (Homo sapiens, UniProt Q13177).
T2 construct: purchased Millipore KinaseProfiler
How it is done:
as §1, §2, §3, §4, §5

Another test concerns the target T3, c-RAF (Homo sapiens, UniProt P04049).
T3 construct: purchased Millipore KinaseProfiler
The protocol: as §1, §2, §3, §4, §5

The next test deals with T4, Abl (Homo sapiens, UniProt P00519).
T4 construct: purchased Millipore KinaseProfiler
The protocol:
as §1, §2, §3, §4, §5

The next test addresses T5, CHK1 (Homo sapiens, UniProt O14757).
T5 construct: purchased Millipore KinaseProfiler
How it is done: as §1, §2, §3, §4, §5

The target of the next test is T6, JNK1 α1 (Homo sapiens, UniProt P45983).
T6 construct: purchased Millipore KinaseProfiler
T6 sequence (P45983 1-384 isoform P45983-2): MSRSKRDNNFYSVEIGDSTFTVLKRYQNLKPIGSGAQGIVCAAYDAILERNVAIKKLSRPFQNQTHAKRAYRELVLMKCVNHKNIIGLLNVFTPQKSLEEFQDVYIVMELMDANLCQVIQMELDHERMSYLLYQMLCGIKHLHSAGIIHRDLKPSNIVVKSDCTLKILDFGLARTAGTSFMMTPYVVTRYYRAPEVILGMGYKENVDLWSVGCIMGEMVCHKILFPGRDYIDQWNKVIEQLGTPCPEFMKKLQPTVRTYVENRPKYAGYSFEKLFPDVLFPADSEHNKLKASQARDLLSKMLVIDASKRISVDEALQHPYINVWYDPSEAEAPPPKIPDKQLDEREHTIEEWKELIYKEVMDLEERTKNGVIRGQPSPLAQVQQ
The protocol:
as §1, §2, §3, §4, §5

The next test deals with T7, mTOR/FKBP12 (Homo sapiens, UniProt P42345).
T7 construct: purchased Millipore KinaseProfiler
How it is done: as §1, §2, §3, §4, §5

A further test addresses T8, ALK (Homo sapiens, UniProt Q9UM73).
T8 construct: purchased Millipore KinaseProfiler
The protocol: as §1, §2, §3, §4, §5

Another test deals with T9, PDGFR α (Homo sapiens, UniProt P16234).
T9 construct: purchased Millipore KinaseProfiler
How it is done:
as §1, §2, §3, §4, §5

In another test the target is T10, JAK2 (Homo sapiens, UniProt O60674).
T10 construct: purchased Millipore KinaseProfiler
T10 sequence (O60674 whole entry): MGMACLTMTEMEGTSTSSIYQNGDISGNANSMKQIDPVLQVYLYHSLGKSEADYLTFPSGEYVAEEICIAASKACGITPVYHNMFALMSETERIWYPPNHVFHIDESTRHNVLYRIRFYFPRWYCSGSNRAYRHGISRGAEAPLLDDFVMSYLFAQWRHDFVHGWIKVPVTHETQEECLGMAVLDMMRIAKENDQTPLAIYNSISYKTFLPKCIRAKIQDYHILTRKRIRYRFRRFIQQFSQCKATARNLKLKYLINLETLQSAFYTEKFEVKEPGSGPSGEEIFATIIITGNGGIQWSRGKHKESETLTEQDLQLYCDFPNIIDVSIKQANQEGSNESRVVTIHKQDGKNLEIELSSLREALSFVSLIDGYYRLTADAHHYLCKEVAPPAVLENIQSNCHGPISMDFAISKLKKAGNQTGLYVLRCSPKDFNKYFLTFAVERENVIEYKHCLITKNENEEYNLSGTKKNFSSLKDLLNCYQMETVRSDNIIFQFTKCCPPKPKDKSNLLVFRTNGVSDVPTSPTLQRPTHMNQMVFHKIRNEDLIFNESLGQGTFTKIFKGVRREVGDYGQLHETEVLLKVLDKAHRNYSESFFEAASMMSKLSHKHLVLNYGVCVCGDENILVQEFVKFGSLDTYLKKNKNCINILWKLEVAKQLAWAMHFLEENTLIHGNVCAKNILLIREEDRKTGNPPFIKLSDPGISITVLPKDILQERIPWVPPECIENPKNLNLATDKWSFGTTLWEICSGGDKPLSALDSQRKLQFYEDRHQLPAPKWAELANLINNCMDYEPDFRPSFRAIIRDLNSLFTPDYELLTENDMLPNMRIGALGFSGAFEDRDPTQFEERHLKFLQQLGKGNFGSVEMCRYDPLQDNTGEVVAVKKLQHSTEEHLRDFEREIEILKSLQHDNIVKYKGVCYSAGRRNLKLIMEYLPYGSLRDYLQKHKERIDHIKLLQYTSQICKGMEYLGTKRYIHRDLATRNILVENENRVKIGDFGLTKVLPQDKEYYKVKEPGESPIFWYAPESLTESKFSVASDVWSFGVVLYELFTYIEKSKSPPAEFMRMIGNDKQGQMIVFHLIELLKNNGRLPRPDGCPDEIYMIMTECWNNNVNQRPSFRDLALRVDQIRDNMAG
The protocol: as §1, §2, §3, §4, §5

The next test has as its target T11, PEK (Homo sapiens, UniProt Q9NZJ5).
T11 construct: purchased Millipore KinaseProfiler
The protocol: as §1, §2, §3, §4, §5

A further test addresses T12, CDK1/cyclinB (Homo sapiens, UniProt P06493).
T12 construct: purchased Millipore KinaseProfiler
The protocol: as §1, §2, §3, §4, §5

The next test deals with T13, Rsk1 (Homo sapiens, UniProt Q15418).
T13 construct: purchased Millipore KinaseProfiler
The protocol: as §1, §2, §3, §4, §5

In the next test the test system is CK1(y). How it is done: as §1, §2, §3, §4, §5
A further test addresses T14, Src(1-530) (Homo sapiens, UniProt P12931).
T14 construct: purchased Millipore KinaseProfiler
How it is done:
as §1, §2, §3, §4, §5

For another test, the target named is T15, NEK11 (Homo sapiens, UniProt Q8NG66).
T15 construct: purchased Millipore KinaseProfiler
T15 sequence (Q8NG66 whole entry): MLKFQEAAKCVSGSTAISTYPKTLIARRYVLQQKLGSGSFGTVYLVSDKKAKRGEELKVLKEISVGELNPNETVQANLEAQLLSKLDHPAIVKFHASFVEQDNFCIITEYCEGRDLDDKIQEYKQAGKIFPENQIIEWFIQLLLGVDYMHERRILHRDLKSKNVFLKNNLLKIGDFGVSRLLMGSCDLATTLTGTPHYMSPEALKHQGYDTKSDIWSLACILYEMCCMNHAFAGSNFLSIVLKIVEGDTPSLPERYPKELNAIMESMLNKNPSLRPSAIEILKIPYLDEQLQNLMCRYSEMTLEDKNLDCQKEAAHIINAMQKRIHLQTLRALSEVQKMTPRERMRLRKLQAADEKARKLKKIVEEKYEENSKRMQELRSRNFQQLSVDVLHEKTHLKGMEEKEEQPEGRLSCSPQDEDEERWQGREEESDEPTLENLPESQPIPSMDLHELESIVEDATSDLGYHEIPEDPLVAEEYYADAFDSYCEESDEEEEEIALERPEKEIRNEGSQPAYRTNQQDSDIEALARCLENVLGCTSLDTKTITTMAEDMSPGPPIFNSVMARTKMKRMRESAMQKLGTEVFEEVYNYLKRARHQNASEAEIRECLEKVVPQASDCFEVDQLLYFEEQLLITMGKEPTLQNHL
The protocol: as §1, §2, §3, §4, §5

In another test the target is T16, Pim-1 (Homo sapiens, UniProt P11309).
T16 construct: purchased Millipore KinaseProfiler
The protocol: as §1, §2, §3, §4, §5

The target of another test is T17, Syk (Homo sapiens, UniProt P43405).
T17 construct: purchased Millipore KinaseProfiler
How it is done: as §1, §2, §3, §4, §5

A further test addresses T18, SGK (Homo sapiens, UniProt O00141).
T18 construct: purchased Millipore KinaseProfiler
The protocol:
as §1, §2, §3, §4, §5

A further test concerns the target T19, Plk1 (Homo sapiens, UniProt P53350).
T19 construct: purchased Millipore KinaseProfiler
How it is done: as §1, §2, §3, §4, §5

T8 sequence (Q9UM73 19-1620): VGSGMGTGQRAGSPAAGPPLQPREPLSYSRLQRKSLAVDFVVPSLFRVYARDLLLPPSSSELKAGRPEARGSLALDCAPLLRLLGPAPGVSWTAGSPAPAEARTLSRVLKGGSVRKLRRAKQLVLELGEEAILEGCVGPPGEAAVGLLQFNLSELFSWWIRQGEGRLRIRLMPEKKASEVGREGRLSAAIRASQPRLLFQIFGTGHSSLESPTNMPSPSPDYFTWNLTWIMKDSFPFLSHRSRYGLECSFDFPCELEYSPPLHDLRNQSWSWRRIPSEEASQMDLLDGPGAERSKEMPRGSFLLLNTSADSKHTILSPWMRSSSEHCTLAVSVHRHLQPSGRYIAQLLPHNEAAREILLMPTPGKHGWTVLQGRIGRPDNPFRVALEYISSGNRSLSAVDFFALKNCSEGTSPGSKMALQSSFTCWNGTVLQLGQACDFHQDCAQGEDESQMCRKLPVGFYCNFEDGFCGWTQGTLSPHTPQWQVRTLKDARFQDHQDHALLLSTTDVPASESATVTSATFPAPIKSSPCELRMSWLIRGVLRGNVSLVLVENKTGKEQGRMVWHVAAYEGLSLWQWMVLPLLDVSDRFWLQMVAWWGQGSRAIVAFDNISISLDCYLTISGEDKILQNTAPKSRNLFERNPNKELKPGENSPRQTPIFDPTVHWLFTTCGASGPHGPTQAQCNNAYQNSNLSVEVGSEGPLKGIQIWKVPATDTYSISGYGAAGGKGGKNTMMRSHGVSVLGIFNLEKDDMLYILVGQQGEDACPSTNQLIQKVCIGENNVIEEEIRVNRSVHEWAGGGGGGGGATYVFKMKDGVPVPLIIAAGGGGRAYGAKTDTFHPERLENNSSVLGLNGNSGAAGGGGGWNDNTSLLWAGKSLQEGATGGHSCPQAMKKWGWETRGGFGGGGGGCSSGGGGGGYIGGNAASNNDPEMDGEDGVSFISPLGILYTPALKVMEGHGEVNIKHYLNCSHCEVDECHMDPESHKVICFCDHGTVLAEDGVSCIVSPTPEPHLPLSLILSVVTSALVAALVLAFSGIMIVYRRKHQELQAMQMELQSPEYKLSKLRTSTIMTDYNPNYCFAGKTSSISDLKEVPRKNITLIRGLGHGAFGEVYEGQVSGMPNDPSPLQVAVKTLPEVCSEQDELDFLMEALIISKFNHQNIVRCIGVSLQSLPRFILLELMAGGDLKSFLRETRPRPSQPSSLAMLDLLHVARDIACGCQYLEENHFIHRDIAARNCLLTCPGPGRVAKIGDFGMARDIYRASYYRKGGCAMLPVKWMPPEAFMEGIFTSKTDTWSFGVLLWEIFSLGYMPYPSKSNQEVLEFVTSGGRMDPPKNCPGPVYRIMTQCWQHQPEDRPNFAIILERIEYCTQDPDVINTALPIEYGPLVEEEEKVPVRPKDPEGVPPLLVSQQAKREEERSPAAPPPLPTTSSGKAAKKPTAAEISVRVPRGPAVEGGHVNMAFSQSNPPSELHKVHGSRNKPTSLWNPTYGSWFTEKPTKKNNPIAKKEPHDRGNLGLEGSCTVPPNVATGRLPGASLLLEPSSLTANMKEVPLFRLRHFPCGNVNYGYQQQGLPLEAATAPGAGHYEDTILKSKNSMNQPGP
T11 sequence (Q9NZJ5 30-1116): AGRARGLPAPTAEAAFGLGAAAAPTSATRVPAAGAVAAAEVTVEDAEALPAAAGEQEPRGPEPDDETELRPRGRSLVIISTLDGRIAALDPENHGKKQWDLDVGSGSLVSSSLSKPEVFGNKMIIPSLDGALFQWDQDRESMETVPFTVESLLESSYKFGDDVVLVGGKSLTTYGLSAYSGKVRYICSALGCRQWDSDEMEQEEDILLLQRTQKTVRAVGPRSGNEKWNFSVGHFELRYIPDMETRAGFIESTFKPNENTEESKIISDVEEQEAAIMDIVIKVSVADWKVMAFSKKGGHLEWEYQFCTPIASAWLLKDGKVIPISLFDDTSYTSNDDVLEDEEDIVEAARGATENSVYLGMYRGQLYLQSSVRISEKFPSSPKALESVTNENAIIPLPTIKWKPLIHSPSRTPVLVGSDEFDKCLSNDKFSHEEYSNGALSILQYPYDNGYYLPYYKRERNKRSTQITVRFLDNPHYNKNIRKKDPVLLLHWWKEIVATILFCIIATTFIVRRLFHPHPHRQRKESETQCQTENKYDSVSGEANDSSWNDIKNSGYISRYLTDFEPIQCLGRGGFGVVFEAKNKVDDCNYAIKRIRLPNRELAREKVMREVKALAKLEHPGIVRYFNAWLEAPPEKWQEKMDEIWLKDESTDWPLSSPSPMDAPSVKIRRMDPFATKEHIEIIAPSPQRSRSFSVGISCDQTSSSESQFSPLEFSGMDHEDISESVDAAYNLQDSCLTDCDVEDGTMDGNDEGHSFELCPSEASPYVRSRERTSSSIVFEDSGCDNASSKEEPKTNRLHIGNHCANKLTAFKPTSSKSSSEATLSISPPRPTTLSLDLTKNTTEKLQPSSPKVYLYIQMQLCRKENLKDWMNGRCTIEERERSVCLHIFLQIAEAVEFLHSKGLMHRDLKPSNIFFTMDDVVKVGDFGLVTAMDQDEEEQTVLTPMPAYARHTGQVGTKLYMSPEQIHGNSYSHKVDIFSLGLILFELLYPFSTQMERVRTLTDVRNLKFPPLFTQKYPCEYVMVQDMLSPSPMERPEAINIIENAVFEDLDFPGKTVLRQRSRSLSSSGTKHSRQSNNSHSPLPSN

`O=C(N1CCCC1)N1CCC(n2cnc3c(-n4c(C(F)F)nc5ccccc54)nc(N4CCOCC4)nc32)CC1` [X-370]: the “Kinase activity (% of control)” value is given as 106 % of control on IRAK1; 100 % of control at PAK2; 50 % of control at c-RAF; 130 % of control on Abl; 74 % of control at CHK1; 90 % of control on JNK1 α1. The “Kinase activity (% of control)” value was 48 % of control at mTOR/FKBP12; 79 % of control on ALK; 121 % of control on PDGFR α; 109 % of control on JAK2; 105 % of control at PEK; 97 % of control at CDK1/cyclinB. The “Kinase activity (% of control)” value on Rsk1 is 88 % of control; in the test with CK1(y), 64 % of control; at Src(1-530), 99 % of control; at NEK11, 95 % of control; on Pim-1, 88 % of control; on Syk, 85 % of control. Further, the “Kinase activity (% of control)” value on SGK is 72 % of control; on Plk1, 100 % of control.
